Reference: patent US20260256925A1, “INDAZOLE DERIVATIVES AS ESTROGEN RECEPTOR DEGRADERS” (REGENTS OF THE UNIVERSITY OF MICHIGAN, priority 2022, published 2026)

How the values were obtained:
[1] = Cell growth assay, WST-8 (compounds B1-B126); assay type: cell-based; conditions: 96 h; T47D cell line, WST-8, 4 days; read-out: Cell growth inhibition in T47D cell line IC50
Outline: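 Cells seeded at 1500/well overnight, treated one day later with compound doses for 4 days, then 10% WST-8 added for 2.5 h at 37° C in CO2. Absorbance at 450 nm, expressed relative to vehicle control over three independent repeats.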

[2] = biological target: T1, ER (Homo sapiens, UniProt P03372); assay: In-cell western blot analysis, relative ER percentage (compounds B1-B126); assay type: cell-based; conditions: ER degradation, 16 hours, read-out: ICW DC50
T1 construct: endogenous in cells; probably T47D or MCF-7
T1 sequence (P03372 1-595): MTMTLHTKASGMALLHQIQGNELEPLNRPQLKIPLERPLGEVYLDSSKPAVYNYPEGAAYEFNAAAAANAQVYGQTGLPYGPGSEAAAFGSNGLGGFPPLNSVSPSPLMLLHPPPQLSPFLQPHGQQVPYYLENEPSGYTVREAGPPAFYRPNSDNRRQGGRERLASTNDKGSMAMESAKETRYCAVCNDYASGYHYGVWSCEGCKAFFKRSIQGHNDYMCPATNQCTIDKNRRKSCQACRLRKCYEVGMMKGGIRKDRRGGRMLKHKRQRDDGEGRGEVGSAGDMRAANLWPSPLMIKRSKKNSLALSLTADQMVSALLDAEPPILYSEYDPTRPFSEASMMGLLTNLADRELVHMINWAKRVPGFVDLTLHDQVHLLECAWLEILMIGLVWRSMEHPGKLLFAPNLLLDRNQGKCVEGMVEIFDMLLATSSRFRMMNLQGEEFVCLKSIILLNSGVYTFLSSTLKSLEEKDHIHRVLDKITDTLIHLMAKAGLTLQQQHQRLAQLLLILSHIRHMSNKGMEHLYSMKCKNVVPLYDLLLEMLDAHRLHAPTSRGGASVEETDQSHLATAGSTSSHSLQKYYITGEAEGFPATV
Outline: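 Cells seeded at 40,000 or 10,000 per well overnight were treated with compound (final 0.5% DMSO) for 16 hours, then fixed with formaldehyde. ER was detected with primary antibodies and anti-rabbit-680/anti-mouse-800 secondaries on a CLX reader. Signal is expressed relative to untreated and DMSO wells set as 100%.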

Compound | DC50 [2] | IC50 [1]
C[C@@H]1Cc2c(ccc3[nH]ncc23)[C@@H](c2c(F)cc(N3CC4(CN(C(=O)CN5CCN6c7cc8c(cc7OC[C@@H]6C5)C(=O)N(C5CCC(=O)NC5=O)C8)C4)C3)cc2F)N1CC(F)F (stereo partly drawn) [Compound B34, 3-((S)-3-(2-(6-(4-((6S,8R)-7-(2,2-difluoroethyl)-8-methyl-6,7,8,9-tetrahydro-3H-pyrazolo[4,3-f]isoquinolin-6-yl)-3,5-difluorophenyl)-2,6-diazaspiro[3.3]heptan-2-yl)-2-oxoethyl)-8-oxo-1,2,3,4,4a,5,8,10-octahydro-9H-pyrazino[1′,2′:4,5][1,4]oxazino[2,3-f]isoindol-9-yl)piperidine-2,6-dione] | < 10 nM | < 1 nM
C[C@@H]1Cc2c(ccc3[nH]ncc23)[C@@H](c2ccc(N3CCC4(CCN(CC(=O)N5Cc6cc7c(cc6C5)C(=O)N(C5CCC(=O)NC5=O)C7)CC4)CC3)cn2)N1CC(F)(F)F (stereo partly drawn) [Compound B76, 3-(6-(2-(9-(6-((6S,8R)-8-methyl-7-(2,2,2-trifluoroethyl)-6,7,8,9-tetrahydro-3H-pyrazolo[4,3-f]isoquinolin-6-yl)pyridin-3-yl)-3,9-diazaspiro[5.5]undecan-3-yl)acetyl)-1-oxo-3,5,6,7-tetrahydropyrrolo[3,4-f]isoindol-2(1H)-yl)piperidine-2,6-dione] | < 10 nM | 1 to 10 nM
COc1c2c(cc3c1CN(C1CCC(=O)NC1=O)C3=O)CN(CC(=O)N1CC3(CCN(c4cc(F)c([C@@H]5c6ccc7[nH]ncc7c6C[C@@H](C)N5CC(F)F)c(F)c4)CC3)C1)C2 (stereo partly drawn) [Compound B73, 3-(6-(2-(7-(4-((6S,8R)-7-(2,2-difluoroethyl)-8-methyl-6,7,8,9-tetrahydro-3H-pyrazolo[4,3-f]isoquinolin-6-yl)-3,5-difluorophenyl)-2,7-diazaspiro[3.5]nonan-2-yl)-2-oxoethyl)-4-methoxy-1-oxo-3,5,6,7-tetrahydropyrrolo[3,4-f]isoindol-2(1H)-yl)piperidine-2,6-dione] | 10 to 100 nM | < 1 nM
C[C@@H]1Cc2c(ccc3[nH]ncc23)[C@@H](c2c(F)cc(NC3CC4(C3)CN(C(=O)CN3CCN5c6cc7c(cc6OC[C@@H]5C3)C(=O)N(C3CCC(=O)NC3=O)C7)C4)cc2F)N1CC(F)F (stereo partly drawn) [Compound B39, 3-((S)-3-(2-(6-((4-((6S,8R)-7-(2,2-difluoroethyl)-8-methyl-6,7,8,9-tetrahydro-3H-pyrazolo[4,3-f]isoquinolin-6-yl)-3,5-difluorophenyl)amino)-2-azaspiro[3.3]heptan-2-yl)-2-oxoethyl)-8-oxo-1,2,3,4,4a,5,8,10-octahydro-9H-pyrazino[1′,2′:4,5][1,4]oxazino[2,3-f]isoindol-9-yl)piperidine-2,6-dione] | < 10 nM | < 1 nM
C[C@@H]1Cc2c(ccc3[nH]ncc23)[C@@H](c2c(F)cc(N3CC4(CCN(C(=O)CN5CCN6c7cc8c(cc7OC[C@@H]6C5)C(=O)N(C5CCC(=O)NC5=O)C8)C4)C3)cc2F)N1CC(F)F (stereo partly drawn) [Compound B36, 3-((S)-3-(2-(2-(4-((6S,8R)-7-(2,2-difluoroethyl)-8-methyl-6,7,8,9-tetrahydro-3H-pyrazolo[4,3-f]isoquinolin-6-yl)-3,5-difluorophenyl)-2,6-diazaspiro[3.4]octan-6-yl)-2-oxoethyl)-8-oxo-1,2,3,4,4a,5,8,10-octahydro-9H-pyrazino[1′,2′:4,5][1,4]oxazino[2,3-f]isoindol-9-yl)piperidine-2,6-dione] | < 10 nM | < 1 nM
C[C@@H]1Cc2c(ccc3[nH]ncc23)[C@@H](c2c(F)cc(N3CCC(CN4CC(N5CCN6c7cc8c(cc7OC[C@@H]6C5)C(=O)N(C5CCC(=O)NC5=O)C8)C4)CC3)cc2F)N1CC(F)F (stereo partly drawn) [Compound B46, 3-((S)-3-(1-((1-(4-((6S,8R)-7-(2,2-difluoroethyl)-8-methyl-6,7,8,9-tetrahydro-3H-pyrazolo[4,3-f]isoquinolin-6-yl)-3,5-difluorophenyl)piperidin-4-yl)methyl)azetidin-3-yl)-8-oxo-1,2,3,4,4a,5,8,10-octahydro-9H-pyrazino[1′,2′:4,5][1,4]oxazino[2,3-f]isoindol-9-yl)piperidine-2,6-dione] | < 10 nM | < 1 nM
C[C@@H]1Cc2c(ccc3[nH]ncc23)[C@@H](c2ccc(N3CCC4(CC3)CC(CN3CCC5(CC3)COc3c5ccc5c3CN(C3CCC(=O)NC3=O)C5=O)C4)cn2)N1CC(F)(F)F (stereo partly drawn) [Compound B60, 3-(1′-((7-(6-((6S,8R)-8-methyl-7-(2,2,2-trifluoroethyl)-6,7,8,9-tetrahydro-3H-pyrazolo[4,3-f]isoquinolin-6-yl)pyridin-3-yl)-7-azaspiro[3.5]nonan-2-yl)methyl)-6-oxo-6,8-dihydro-2H,7H-spiro[furo[2,3-e]isoindole-3,4′-piperidin]-7-yl)piperidine-2,6-dione] | < 10 nM | < 1 nM

Second part, led by results:

DC50 [2] | Compound | IC50 [1]
< 10 nM | C[C@@H]1Cc2c(ccc3[nH]ncc23)[C@@H](c2ccc(N3CC4(CC(CN5CCN6c7ccc8c(c7OC[C@H]6C5)CN(C5CCC(=O)NC5=O)C8=O)CO4)C3)cn2)N1CC(F)(F)F (stereo partly drawn) [Compound B96, 3-((5aR)-7-((2-(6-((6S,8R)-8-methyl-7-(2,2,2-trifluoroethyl)-6,7,8,9-tetrahydro-3H-pyrazolo[4,3-f]isoquinolin-6-yl)pyridin-3-yl)-5-oxa-2-azaspiro[3.4]octan-7-yl)methyl)-1-oxo-1,3,5,5a,6,7,8,9-octahydro-2H-pyrazino[1′,2′:4,5][1,4]oxazino[2,3-e]isoindol-2-yl)piperidine-2,6-dione] | < 1 nM
< 10 nM | C[C@@H]1Cc2c(ccc3[nH]ncc23)[C@@H](c2ccc(N3CCC4(CCC(CN5CCN6c7ccc8c(c7OCC6C5)CN([C@H]5CCC(=O)NC5=O)C8=O)CO4)CC3)nn2)N1CC(F)(F)F (stereo partly drawn) [Compound B127, (3S)-3-(7-((9-(6-((6S,8R)-8-methyl-7-(2,2,2-trifluoroethyl)-6,7,8,9-tetrahydro-3H-pyrazolo[4,3-f]isoquinolin-6-yl)pyridazin-3-yl)-1-oxa-9-azaspiro[5.5]undecan-3-yl)methyl)-1-oxo-1,3,5,5a,6,7,8,9-octahydro-2H-pyrazino[1′,2′:4,5][1,4]oxazino[2,3-e]isoindol-2-yl)piperidine-2,6-dione] | < 1 nM
< 10 nM | C[C@@H]1Cc2c(ccc3[nH]ncc23)[C@@H](c2c(F)cc(N3CC4(CN(CC(=O)N5CCN6c7ccc8c(c7OC[C@H]6C5)CN(C5CCC(=O)NC5=O)C8=O)C4)C3)cc2F)N1CC(F)F (stereo partly drawn) [Compound B98, 3-((R)-7-(2-(6-(4-((6S,8R)-7-(2,2-difluoroethyl)-8-methyl-6,7,8,9-tetrahydro-3H-pyrazolo[4,3-f]isoquinolin-6-yl)-3,5-difluorophenyl)-2,6-diazaspiro[3.3]heptan-2-yl)acetyl)-1-oxo-1,3,5,5a,6,7,8,9-octahydro-2H-pyrazino[1′,2′:4,5][1,4]oxazino[2,3-e]isoindol-2-yl)piperidine-2,6-dione] | < 1 nM
